In patent US10227344B2, “CK2 inhibitors, compositions and methods thereof” (Polaris Pharmaceuticals, Inc., priority 2016, dated 2019):

How the values were obtained:
Type in all cases: cell-based
MOLT4 = experiment: Cancer cell panel, cell viability (resazurin): Leukemia, MOLT4; details: 72 hours, labelled drug combined with Example 3
Description: (§1) Cells were plated in 96-well plates and treated for 72 hours with a serially diluted CK2 inhibitor or anti-cancer drug or their combination. The suspension cell lines were treated right after plating, while the adherent cells were allowed to attach overnight prior to the start of the treatment.
(§2) Cell viability was determined by adding resazurin to cell cultures and measuring fluorescence with a plate reader. Relative cell viability was calculated by dividing the cell viability signal from a test sample by that of a non-treated control. […] Bliss Independence and Highest Single Agent models were used to determine if there is synergy, additivity or antagonism between the CK2 inhibitor and an anti-cancer drug.

U87MG = experiment: Cancer cell panel, cell viability (resazurin): Glioblastoma, U87MG; details: 72 hours, labelled drug combined with Example 3
T47D = experiment: Cancer cell panel, cell viability (resazurin): Breast, T47D; details: 72 hours, labelled drug combined with Example 3
Caov-3 = experiment: Cancer cell panel, cell viability (resazurin): Ovarian, Caov-3; details: Caov-3 (Ovarian), 72 hours; labelled drug combined with Example 3
WM-115 = experiment: Cancer cell panel, cell viability (resazurin): Melanoma, WM-115; details: WM-115 (Melanoma), 72 hours; labelled drug combined with Example 3
MeWO = experiment: Cancer cell panel, cell viability (resazurin): Melanoma, MeWO; details: 72 hours, labelled drug combined with Example 3
Description: as §1, §2

Caki-1 = experiment: Cancer cell panel, cell viability (resazurin): Renal, Caki-1; details: Caki-1 (Renal), 72 hours; labelled drug combined with Example 3
MDA-MB-157 = experiment: Cancer cell panel, cell viability (resazurin): Breast, MDA-MB-157; details: MDA-MB-157 (Breast), 72 hours; labelled drug combined with Example 3
H23 = experiment: Cancer cell panel, cell viability (resazurin): NSCLC, H23; details: 72 hours, labelled drug combined with Example 3
Description: as §1, §2

Raji = experiment: Cancer cell panel, cell viability (resazurin): Burkitt's Lymphoma, Raji; details: 72 hours, labelled drug combined with Example 3
Description: as §1, §2

BT-474 = experiment: Cancer cell panel, cell viability (resazurin): Breast, BT-474; details: BT-474 (Breast), 72 hours; labelled drug combined with Example 3
A2780 = experiment: Cancer cell panel, cell viability (resazurin): Ovarian, A2780; details: 72 hours, labelled drug combined with Example 3
H2122 = experiment: Cancer cell panel, cell viability (resazurin): NSCLC, H2122; details: 72 hours, labelled drug combined with Example 3
786-O = experiment: Cancer cell panel, cell viability (resazurin): Renal, 786-O; details: 786-O (Renal), 72 hours; labelled drug combined with Example 3
H1975 = experiment: Cancer cell panel, cell viability (resazurin): NSCLC, H1975; details: 72 hours, labelled drug combined with Example 3
ACHN = experiment: Cancer cell panel, cell viability (resazurin): Renal, ACHN; details: 72 hours, labelled drug combined with Example 3
Description: as §1, §2

MDA-MB-231 = experiment: Cancer cell panel, cell viability (resazurin): Breast, MDA-MB-231; details: MDA-MB-231 (Breast), 72 hours; labelled drug combined with Example 3
SK-MEL-24 = experiment: Cancer cell panel, cell viability (resazurin): Melanoma, SK-MEL-24; details: SK-MEL-24 (Melanoma), 72 hours; labelled drug combined with Example 3
MDA-MB-453 = experiment: Cancer cell panel, cell viability (resazurin): Breast, MDA-MB-453; details: MDA-MB-453 (Breast), 72 hours; labelled drug combined with Example 3
HL60 = experiment: Cancer cell panel, cell viability (resazurin): Leukemia, HL60; details: 72 hours, labelled drug combined with Example 3
RPMI8226 = experiment: Cancer cell panel, cell viability (resazurin): multiple myeloma, RPMI8226; details: 72 hours, labelled drug combined with Example 3
LnCap = experiment: Cancer cell panel, cell viability (resazurin): Prostate, LnCap; details: 72 hours, labelled drug combined with Example 3
Description: as §1, §2

DLD-1 = experiment: Cancer cell panel, cell viability (resazurin): Colon, DLD-1; details: DLD-1 (Colon), 72 hours; labelled drug combined with Example 3
HCT116 = experiment: Cancer cell panel, cell viability (resazurin): Colon, HCT116; details: 72 hours, labelled drug combined with Example 3
U266 = experiment: Cancer cell panel, cell viability (resazurin): multiple myeloma, U266; details: 72 hours, labelled drug combined with Example 3
Ramos = experiment: Cancer cell panel, cell viability (resazurin): Burkitt's Lymphoma, Ramos; details: 72 hours, labelled drug combined with Example 3
Description: as §1, §2

H460 = experiment: Cancer cell panel, cell viability (resazurin): NSCLC, H460; details: 72 hours, labelled drug combined with Example 3
EOL-1 = experiment: Cancer cell panel, cell viability (resazurin): Leukemia, EOL-1; details: EOL-1 (Leukemia), 72 hours; labelled drug combined with Example 3
Description: as §1, §2

LoVo = experiment: Cancer cell panel, cell viability (resazurin): Colon, LoVo; details: 72 hours, labelled drug combined with Example 3

Structure (SMILES): O=c1[nH]cc(F)c(=O)[nH]1 [Example 5FU, 5-FU]
- synergy, additivity or antagonism of the combination of Example 3 with the anti-cancer drug (MOLT4): + + (Slight synergy relative to each agent alone (CI = 0.75-0.9 by Bliss Independence Model))
- synergy, additivity or antagonism of the combination of Example 3 with the anti-cancer drug (U87MG): + (Additive relative to each agent alone (CI = 0.9-1 by Bliss Independence Model and <0.9 by Highest Single Agent Model))
- synergy, additivity or antagonism of the combination of Example 3 with the anti-cancer drug (T47D): + (Additive relative to each agent alone (CI = 0.9-1 by Bliss Independence Model and <0.9 by Highest Single Agent Model))
- synergy, additivity or antagonism of the combination of Example 3 with the anti-cancer drug (Caov-3): + (Additive relative to each agent alone (CI = 0.9-1 by Bliss Independence Model and <0.9 by Highest Single Agent Model))
- synergy, additivity or antagonism of the combination of Example 3 with the anti-cancer drug (WM-115): + (Additive relative to each agent alone (CI = 0.9-1 by Bliss Independence Model and <0.9 by Highest Single Agent Model))
- synergy, additivity or antagonism of the combination of Example 3 with the anti-cancer drug (MeWO): − (Slightly antagonistic relative to each agent alone (CI = 1.1-1.2 by Highest Single Agent Model))
- synergy, additivity or antagonism of the combination of Example 3 with the anti-cancer drug (Caki-1): + (Additive relative to each agent alone (CI = 0.9-1 by Bliss Independence Model and <0.9 by Highest Single Agent Model))
- synergy, additivity or antagonism of the combination of Example 3 with the anti-cancer drug (MDA-MB-157): + + (Slight synergy relative to each agent alone (CI = 0.75-0.9 by Bliss Independence Model))
- synergy, additivity or antagonism of the combination of Example 3 with the anti-cancer drug (H23): + (Additive relative to each agent alone (CI = 0.9-1 by Bliss Independence Model and <0.9 by Highest Single Agent Model))
- synergy, additivity or antagonism of the combination of Example 3 with the anti-cancer drug (Raji): + (Additive relative to each agent alone (CI = 0.9-1 by Bliss Independence Model and <0.9 by Highest Single Agent Model))
- synergy, additivity or antagonism of the combination of Example 3 with the anti-cancer drug (BT-474): + (Additive relative to each agent alone (CI = 0.9-1 by Bliss Independence Model and <0.9 by Highest Single Agent Model))
- synergy, additivity or antagonism of the combination of Example 3 with the anti-cancer drug (A2780): + + (Slight synergy relative to each agent alone (CI = 0.75-0.9 by Bliss Independence Model))
- synergy, additivity or antagonism of the combination of Example 3 with the anti-cancer drug (H2122): + (Additive relative to each agent alone (CI = 0.9-1 by Bliss Independence Model and <0.9 by Highest Single Agent Model))
- synergy, additivity or antagonism of the combination of Example 3 with the anti-cancer drug (786-O): + + + (Synergy relative to each agent alone (CI = 0.4-0.74 by Bliss Independence Model))
- synergy, additivity or antagonism of the combination of Example 3 with the anti-cancer drug (H1975): − − (Antagonistic relative to each agent alone (CI = 1.2-1.49 by Highest Single Agent Model))
- synergy, additivity or antagonism of the combination of Example 3 with the anti-cancer drug (ACHN): + (Additive relative to each agent alone (CI = 0.9-1 by Bliss Independence Model and <0.9 by Highest Single Agent Model))
- synergy, additivity or antagonism of the combination of Example 3 with the anti-cancer drug (MDA-MB-231): + (Additive relative to each agent alone (CI = 0.9-1 by Bliss Independence Model and <0.9 by Highest Single Agent Model))
- synergy, additivity or antagonism of the combination of Example 3 with the anti-cancer drug (SK-MEL-24): + (Additive relative to each agent alone (CI = 0.9-1 by Bliss Independence Model and <0.9 by Highest Single Agent Model))
- synergy, additivity or antagonism of the combination of Example 3 with the anti-cancer drug (MDA-MB-453): + (Additive relative to each agent alone (CI = 0.9-1 by Bliss Independence Model and <0.9 by Highest Single Agent Model))
- synergy, additivity or antagonism of the combination of Example 3 with the anti-cancer drug (HL60): + (Additive relative to each agent alone (CI = 0.9-1 by Bliss Independence Model and <0.9 by Highest Single Agent Model))
- synergy, additivity or antagonism of the combination of Example 3 with the anti-cancer drug (RPMI8226): + (Additive relative to each agent alone (CI = 0.9-1 by Bliss Independence Model and <0.9 by Highest Single Agent Model))
- synergy, additivity or antagonism of the combination of Example 3 with the anti-cancer drug (LnCap): + (Additive relative to each agent alone (CI = 0.9-1 by Bliss Independence Model and <0.9 by Highest Single Agent Model))
- synergy, additivity or antagonism of the combination of Example 3 with the anti-cancer drug (DLD-1): + (Additive relative to each agent alone (CI = 0.9-1 by Bliss Independence Model and <0.9 by Highest Single Agent Model))
- synergy, additivity or antagonism of the combination of Example 3 with the anti-cancer drug (HCT116): + + (Slight synergy relative to each agent alone (CI = 0.75-0.9 by Bliss Independence Model))
- synergy, additivity or antagonism of the combination of Example 3 with the anti-cancer drug (U266): + (Additive relative to each agent alone (CI = 0.9-1 by Bliss Independence Model and <0.9 by Highest Single Agent Model))
- synergy, additivity or antagonism of the combination of Example 3 with the anti-cancer drug (Ramos): + + (Slight synergy relative to each agent alone (CI = 0.75-0.9 by Bliss Independence Model))
- synergy, additivity or antagonism of the combination of Example 3 with the anti-cancer drug (H460): + + + (Synergy relative to each agent alone (CI = 0.4-0.74 by Bliss Independence Model))
- synergy, additivity or antagonism of the combination of Example 3 with the anti-cancer drug (EOL-1): + (Additive relative to each agent alone (CI = 0.9-1 by Bliss Independence Model and <0.9 by Highest Single Agent Model))
- synergy, additivity or antagonism of the combination of Example 3 with the anti-cancer drug (LoVo): + (Additive relative to each agent alone (CI = 0.9-1 by Bliss Independence Model and <0.9 by Highest Single Agent Model))
